Data reported in patent US20110288101A1, “SURGICAL CO[…]-RECEPTOR AGONISTS” (ALCON RESEARCH, LTD., priority 2010, published 2011).

Tested on: rabbit corneal endothelial cells
Assay: MTS cell viability assay, protection against hydrogen peroxide oxidative stress
Assay type: cell-based
Details: rabbit corneal endothelial cells in serum-free medium; 70 μM H2O2; 24 hours; 1 to 300 μM (+)-pentazocine; p<0.05 vs H2O2 control; FIG. 1
Description: Studies were performed to determine whether (+)-pentazocine can protect corneal endothelial cells. Hydrogen peroxide was employed to produce oxidative stress to rabbit corneal endothelial cells in vitro.
Briefly, rabbit corneal endothelial cells maintained in serum-free medium were treated with the sigma-1 receptor agonist (+)-pentazocine and 70 μM H2O2 for 24 hours. At the end point, a cell viability assay (MTS assay) is performed. The MTS assay is a laboratory test and standard colorimetric assay for measuring the activity of enzymes that reduce MTS+PMS to formazan, producing a purple color. MTS (3-(4,5-dimethylthiazol-2-yl)-5-(3-carboxymethoxyphenyl)-2-(4-sulfophenyl)-2H-tetrazolium), in the presence of phenazine methosulfate (PMS), produces a water-soluble formazan product that has an absorbance maximum at 490-500 nm in phosphate-buffered saline. These reduction reactions take place only when reductase enzymes are active, and the production of formazan product is therefore used as a measure of cell viability.
Lower absorbance numbers correlate to reduced cell viability.

With CC(C)=CCN1CCC2(C)c3cc(O)ccc3CC1C2C (single isomer, unassigned; (+)) [(+)-pentazocine] the “protection of cell viability (MTS absorbance) against damage induced by hydrogen peroxide” value was “dose-dependent protection”.
